Marks after values point to notes of the source that are not given here.
Tests used:
[1] = tested on: MTX-naïve adult patients with active, early RA (<3 years); experiment: Study J (adalimumab 40 mg eow + MTX vs adalimumab alone vs MTX alone, 2 years): ACR20/50/70/90 response and Major Clinical Response; type: in vivo, human; details: for Major Clinical Response (ACR70 for ≧6 continuous months): over 2 years
Description: This study was a 2-year, double-blind, active-comparator-controlled Phase III study conducted at 149 sites in North America, Europe, and Australia. […] MTX-naïve adult patients with active, early RA (<3 years) were included in the study. Further inclusion criteria included: SJC≧8 and TJC≧10; ESR≧28 mm/hr or CRP≧1.5 mg/dL; and RF-positivity or at least one joint erosion. […] MTX dosages were rapidly optimized to a maximum of 20 mg weekly.
The co-primary endpoints, comparing MTX alone with the combination at 1 year, were the ACR50 response (using non-responder imputation), and inhibition of radiographic progression, as measured by change in total Sharp score (TSS). In this study, the term “Major Clinical Response” (MCR) meant a continuous ACR70 response for 6 or more consecutive months.
The results of this study were evaluated using multiple criteria for clinical remission. This study (Study J) was a 2-year, double-blind, Phase III study.
(§1) Secondary endpoints included DAS28<2.6 at year 1 and Major Clinical Response (MCR=ACR70 response for ≧6 continuous months during a 2-year period).
Study J was a 2-year, double-blind, Phase III study. […] MTX dosages were rapidly optimized to a maximum of 20 mg weekly. Mean changes in total Sharp score (TSS) were measured for patients who achieved American College of Rheumatology (ACR) response (ACR20, ACR50, and ACR70), as well as clinical remission by Disease Activity Score 28 (DAS28<2.6).
(§2) At 1 and 2 years, the American College of Rheumatology (ACR) responses (ACR20, ACR50, and ACR70), the Disease Activity Score 28 (DAS28), and the change (Δ) in Total Sharp Score (TSS) were determined for all patients. Results were analyzed for the intention-to-treat (ITT) population using imputation for missing data. Clinical remission was defined as DAS28<2.6. The mean ΔTSS values at 1 year and 2 years (N=791) were determined for patients in each ACR response category (ACR20/50/70) and for patients with DAS28<2.6
Patients in the Ada+MTX and the MTX arms were classified according to level of clinical response (non-responder (<ACR20), ACR20, ACR50, or ACR70) and radiographic progression (Yes or No (ΔTSS≦0.5)). The ΔTSS was analyzed overall, and for ACR subgroups. This included determination of mean ΔTSS and probability plots. Analyses used observed data from patients completing 6 months or 2 years of treatment (no imputation).

[2] = tested on: MTX-naïve adult patients with active, early RA (<3 years); experiment: Study J: clinical remission by DAS28<2.6; type: in vivo, human
Description: Clinical remission, defined as DAS28<2.6, is described below in Table 25.
as §1, §2

[3] = tested on: MTX-naïve adult patients with active, early RA (<3 years); experiment: Study J: CRP normalization; type: in vivo, human; details: for Patient numbers: CRP Abnormal at Baseline, Abnormal at 1 Year / Patient numbers: CRP Normal at Baseline, Abnormal at 1 Year: Abnormal CRP >0.8 mg/dL; for Patient numbers: CRP Abnormal at Baseline, Normal at 1 Year / Patient numbers: CRP Normal at Baseline, Normal at 1 Year: Normal CRP ≦0.8 mg/dL
Description: Baseline demographics and clinical characteristics of the patients enrolled in this study are described in Example 7. […] After 1 and 2 years of therapy, the percentages of patients with ACR90 responses, TJC=0, SJC=0, HAQ=0, morning stiffness=0 minutes, and normal CRP were determined. Data are from the intention-to-treat (ITT) population with imputation used for missing values. Results were compared with the percentages of patients who achieved DAS28<2.6 or a Major Clinical Response (MCR).
Radiographic progression was assessed by mean change from baseline in Total Sharp Score (TSS) and stratified into those with (ΔTSS>0.5) and without (Δ≦TSS 0.5). Patients were categorized as either having radiographic progression at 1 year (ΔTSS>0.5) or not (Δ≦TSS 0.5). A logistic regression model was used to identify predictors of radiographic disease progression by testing several baseline characteristics, including age, disease duration, RF status, TJC, SJC, joint erosions, and CRP. For analyses of CRP, patients were categorized as normal (CRP≦0.8 mg/dL) or abnormal (CRP>0.8 mg/dL).

[4] = tested on: MTX-naïve adult patients with early RA (<3 years); experiment: Study J: escalation of injectable medicine from eow to weekly dosing; type: in vivo, human; details: for ACR20 following dosage escalation, % of all patients in arm / ACR70 following dosage escalation, % of all patients in arm / DAS28 < 2.6 following dosage escalation, % of all patients in arm / ACR60 following dosage escalation, % of all patients in arm: patients with no prior ACR20 response, NRI; for ACR50, % of responders / ACR70, % of responders: patients whose dosages of adalimumab or placebo injections were escalated; for patients who increased injectable medication to weekly: during year 1 (placebo injections in MTX arm)
Description: Study J was a 2-year, double-blind, active comparator-controlled, Phase III study. […] In patients receiving ADA+MTX or MTX monotherapy, the 7.5 mg MTX weekly dosage increased to 20 mg over 8 weeks, as tolerated and as needed. Monotherapy patients received either placebo pills (adalimumab arm) or placebo injections (MTX arm). Efficacy outcomes measured included ACR response, DAS28 remission, major clinical response, and radiographic change from baseline.
MTX optimization was required before starting weekly injections (to 20 mg weekly, maximum). Once initiated, weekly dosing of injectable medicine was to be maintained until end of study. Criteria for identification of dosage escalators were a sequence of 4 consecutive injections for which the interval for every two consecutive injections was ≦10 days, and/or that the date of escalation, defined as the second of the 4 injections, had to be on or after Week 16 in Year 1. Three dosage escalator categories were defined, based on best ACR response rate achieved any time prior to escalation: Group A=ACR non-responders (never achieved ACR20 prior to dosage escalation), Group B=Partial responders (achieved ACR20 or ACR50 at least once prior to escalation, but never ACR70), and Group C=ACR70 responders (achieved ACR70 at least once prior to escalation). Data are from the intention-to-treat (ITT) population, with missing data analyzed by non-responder imputation (NRI) for clinical measures and by linear imputation for total Sharp scores (TSS).

[5] = tested on: MTX-naïve adult patients with active, early RA (<3 years); experiment: Study J: treatment emergent adverse events; details: 2 years
Description: Study J was a 2-year randomized controlled trial in patients with early RA (disease duration<3 years). Participants in these clinical trials and in other phase Mb studies, were routinely evaluated for safety. Reports of serious adverse events (SAE) were tabulated using MedDRA coding by events per 100-patient-years (E/100PY). SAE rates were compared with respect to disease duration between patients with early (<3 yrs) and long-standing RA.

[6] = 6 months, completers, observed data
[7] = week 52 (1 year), non-responder imputation

CN(Cc1cnc2nc(N)nc(N)c2n1)c1ccc(C(=O)N[C@@H](CCC(=O)O)C(=O)O)cc1 [mtx alone, methotrexate]
ACR70 ([1]; 2 years, completers, observed data): 43%
ACR20 [1, 6]: 79.3%
ACR50 [1, 6]: 51.6%
ACR70 [1, 6]: 28.6%
Major Clinical Response (ACR70 for ≧6 continuous months) [1]: 27 % of patients
ACR70 ([1]; week 52 (1 year)): 28 % of patients
ACR90 ([1]; week 52 (1 year)): 13 % of patients
ACR20 [1, 7]: 63# % of patients
ACR50 [1, 7]: 46 % of patients
ACR20 ([1]; week 52 (1 year), non-responder imputation, listed as MTX alone): 63 % of patients
ACR20 ([1]; week 104 (2 years)): 56 % of patients
ACR50 ([1]; week 104 (2 years)): 43 % of patients
ACR70 ([1]; week 104 (2 years)): 28 % of patients
ACR90 ([1]; week 104 (2 years)): 13 % of patients
clinical remission, DAS28 < 2.6 ([2]; week 52 (1 year)): 21 % of patients
clinical remission, DAS28 < 2.6 ([2]; week 104 (2 years)): 25 % of patients
Normal CRP (≦0.8 mg/dL) ([3]; 1 year): 35 % patients
patients with abnormal baseline CRP that became normal ([3]; 1 year, listed as MTX Alone): 53% (n = 159)
patients with abnormal baseline CRP that became normal ([3]; 1 year, listed as MTX alone): 53%
Normal CRP (≦0.8 mg/dL) ([3]; 2 years): 29 % patients
Patient numbers: CRP Abnormal at Baseline, Abnormal at 1 Year [3]: 75
Patient numbers: CRP Normal at Baseline, Abnormal at 1 Year [3]: 7
Patient numbers: CRP Abnormal at Baseline, Normal at 1 Year [3]: 84
Patient numbers: CRP Normal at Baseline, Normal at 1 Year [3]: 21
ACR20 following dosage escalation, % of all patients in arm ([4]; 1 year): 3.5%
ACR70 following dosage escalation, % of all patients in arm ([4]; 1 year): 0.8%
DAS28 < 2.6 following dosage escalation, % of all patients in arm ([4]; 1 year): 0.0%
No radiographic progression, % of patients ([4]; 2 years, eow dosing): 36.6%
ACR20 following dosage escalation, % of all patients in arm ([4]; 2 years): 3.6%
ACR70 following dosage escalation, % of all patients in arm ([4]; 2 years): 1.2%
DAS28 < 2.6 following dosage escalation, % of all patients in arm ([4]; 2 years): 0.8%
No radiographic progression, % of patients ([4]; 2 years, weekly dosing): 21.2%
ACR50, % of responders ([4]; Year 1): 17%
ACR70, % of responders ([4]; Year 1): 8%
ACR50, % of responders ([4]; Year 2): 21%
ACR70, % of responders ([4]; Year 2): 12%
patients who increased injectable medication to weekly [4]: 20%
All infectious AE [5]: 119 Events/100-PY
Demyelination [5]: 0.0 Events/100-PY
Lymphoma [5]: 0.2 Events/100-PY
Malignancies [5]: 0.9 Events/100-PY
Pancytopenia [5]: 0.2 Events/100-PY
Serious AE [5]: 15.9 Events/100-PY
Serious Infectious AE [5]: 1.6 Events/100-PY
Tuberculosis [5]: 0.0 Events/100-PY

adalimumab: human anti-TNF mAb (HUMIRA, Abbott Laboratories), described in U.S. Pat. No. 6,090,382 as D2E7
Major Clinical Response (ACR70 for ≧6 continuous months) [1]: 25 % of patients
ACR70 ([1]; week 52 (1 year)): 26 % of patients
ACR90 ([1]; week 52 (1 year)): 8 % of patients
ACR20 [1, 7]: 54 % of patients
ACR50 [1, 7]: 42 % of patients
ACR20 ([1]; week 104 (2 years)): 50 % of patients
ACR50 ([1]; week 104 (2 years)): 37 % of patients
ACR70 ([1]; week 104 (2 years)): 28 % of patients
ACR90 ([1]; week 104 (2 years)): 9 % of patients
clinical remission, DAS28 < 2.6 ([2]; week 52 (1 year)): 23 % of patients
clinical remission, DAS28 < 2.6 ([2]; week 104 (2 years)): 25 % of patients
Normal CRP (≦0.8 mg/dL) ([3]; 1 year): 34 % patients
patients with abnormal baseline CRP that became normal ([3]; 1 year, listed as Adalimumab Alone): 52% (n = 150)
Normal CRP (≦0.8 mg/dL) ([3]; 2 years): 34 % patients
Patient numbers: CRP Abnormal at Baseline, Abnormal at 1 Year [3]: 72
Patient numbers: CRP Normal at Baseline, Abnormal at 1 Year [3]: 4
Patient numbers: CRP Abnormal at Baseline, Normal at 1 Year [3]: 78
Patient numbers: CRP Normal at Baseline, Normal at 1 Year [3]: 33
ACR20 following dosage escalation, % of all patients in arm ([4]; 1 year): 1.8%
ACR60 following dosage escalation, % of all patients in arm ([4]; 1 year): 1.6%
ACR70 following dosage escalation, % of all patients in arm ([4]; 1 year): 0 (0) %
DAS28 < 2.6 following dosage escalation, % of all patients in arm ([4]; 1 year): 0.4%
No radiographic progression, % of patients ([4]; 2 years, eow dosing): 48.8%
ACR20 following dosage escalation, % of all patients in arm ([4]; 2 years): 2.6%
ACR60 following dosage escalation, % of all patients in arm ([4]; 2 years): 0.4%
ACR70 following dosage escalation, % of all patients in arm ([4]; 2 years): 0.4%
DAS28 < 2.6 following dosage escalation, % of all patients in arm ([4]; 2 years): 0.4%
No radiographic progression, % of patients ([4]; 2 years, weekly dosing): 31.9%
ACR50, % of responders ([4]; Year 1): 17%
ACR70, % of responders ([4]; Year 1): 6%
ACR50, % of responders ([4]; Year 2): 16%
ACR70, % of responders ([4]; Year 2): 10%
patients who increased injectable medication to weekly [4]: 25%
Tuberculosis [5]: 0.0 Events/100-PY

Reference: patent publication US20120171123A1, “USES AND COMPOSITIONS FOR TREATMENT OF RHEUMATOID ARTHRITIS” (priority 2006, published 2012)
